{"source": "patent US10213507B2", "about": "“Compositions and methods for treating HIV-associated neurocognitive disorders” (THE FLORIDA INTERNATIONAL UNIVERSITY BOARD OF TRUSTEES, priority 2017, dated 2019)", "key": {"[1]": {"target": "T1, σ-1 receptor (Mus musculus, UniProt O55242)", "T1 construct": "from tissue; host or cells: whole animal (mice), endogenous receptor", "T1 sequence (O55242 whole entry)": "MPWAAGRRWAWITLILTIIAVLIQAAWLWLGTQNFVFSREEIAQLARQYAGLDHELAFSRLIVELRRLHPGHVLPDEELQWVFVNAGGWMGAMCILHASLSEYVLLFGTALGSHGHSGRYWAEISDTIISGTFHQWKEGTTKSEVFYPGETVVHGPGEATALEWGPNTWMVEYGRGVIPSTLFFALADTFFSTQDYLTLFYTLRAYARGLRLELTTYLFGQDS", "settings": "pre-treatment of mice; cited from earlier work"}, "[2]": {"tested_on": "in-vitro BBB model (brain microvascular endothelial cells, astrocytes and pericytes)", "assay": "In-vitro BBB model integrity (TEER)", "type": "cell-based, human", "settings": "free WA 2 μM in apical chamber, external magnetic field 0.8 T, 3 h", "description": "(§1) FIGS. 3A-3B provide: A) Effect of WA and MENP on in-vitro BBB integrity: WA (2 μM) and MENPs (100 μg) were added in the upper chamber of the BBB model with magnet (0.8 T) placed underneath the culture plate for 3 h duration. After treatment, Transepithelial Electrical Resistance (TEER) values were calculated and compared with control; B) Aβ1-40 ELISA from supernatant from SHAPP cells: To study WA (2 μM) efficacy and BBB permeability without MENPs, Aβ1-40 specific enzyme-linked immunosorbent assay (ELISA) was performed using supernatant collected from the basal side of the BBB trans-well where SHAPP cells were seeded at the bottom of culture plate. (n=3; NS-Not Significant.)\n(§2) In-vitro BBB model was developed using brain microvascular endothelial cells, astrocytes and pericytes. The integrity of BBB was examined by measuring the TEER values before and after addition of free WA (2 μM) and free MENPs (100 μg) to the apical chamber of in vitro BBB model.\nPreparation and validation of BBB integrity: Established in vitro BBB model can be used. The BBB model can be constructed using primary endothelial cells (HBMEC), pericytes (HMVP) and astrocytes (HA). BBB formation and intactness can be determined by measuring the TEER using the REMS AutoSampler BBB device and permeability to fluorescein isothiocyanate-dextran (FITC dextran). […]"}, "[3]": {"tested_on": "Aβ-secretion in SH-APP cells", "assay": "WA BBB permeability without MENPs: Aβ1-40 ELISA of SH-APP cells in the basal chamber of the BBB trans-well", "type": "cell-based, human", "description": "as §1, §2"}, "[4]": {"tested_on": "HIV-1", "assay": "HIV infection of CHME-5 microglial cells (p24 ELISA, LTR quantitative real-time PCR)", "type": "cell-based", "settings": "WA 0.5 and 1 μM, 7 dpi", "description": "(§3) FIGS. 6A-6C show Effect of WA on HIV-1 suppression and its cytotoxicity in microglial (CHME-5) cell±HIV. […] (A) p24 study; (B) LTR and (C) Cytotoxicity study: XTT assay was performed on WA treated CHME-5 cells (n=3; *, p≤0.05; ****, p≤0.001; NS-Not Significant).\n(§4) Human microglial cells (CHME-5) were infected with HIV and treated with different concentrations of WA (0.5 and 1 μM). Seven days post-infection (dpi), culture supernatant was used for p24 ELISA and cell pellet was used for the […] (LTR) measurement using quantitative real-time PCR."}, "[5]": {"tested_on": "CHME-5 cells", "assay": "XTT cytotoxicity assay in CHME-5 cells", "type": "cell-based", "settings": "1 μM WA, 48 hours", "description": "as §3, §4"}, "[6]": {"tested_on": "Aβ-production in SH-APP cells", "assay": "HIV-induced β-amyloid production in SH-APP cells by flow cytometry", "type": "cell-based, human", "settings": "HIV 100 ng 7 days, WA 2 μM 48 hours, Aβ 1-40 specific antibody", "description": "FIGS. 7A-7D show quantitative analysis of β-amyloid production after 7 days of HIV infection and 48 hours of WA treatment (2 μM) on SH-APP (neuroblastoma cell line) using flow cytometry. An increase in β-amyloid production is observed in cells treated with B) HIV-100 ng; compared to A) Control."}, "[7]": {"tested_on": "HIV", "assay": "HIV LTR detection in HIV-exposed SH-APP cells", "type": "cell-based", "settings": "WA 2 μm, HIV 100 ng, 1 dpi; 30,000 copies with HIV alone", "from_the_text": "(n=3; *, p≤0.05; **, p≤0.01; and ***, p≤0.001.)\nAβPP-transfected SH-APP cells are susceptible to HIV infection."}, "[8]": {"tested_on": "Aβ secretion by SH-APP cells", "assay": "Aβ 1-40 ELISA of culture supernatants of WA treated SH-APP cells", "type": "cell-based, human", "description": "(n=3; *, p≤0.05; NS-Not Significant).\nHuman neuroblastoma cells transfected with APP gene (SH-APP) were cultured with different concentrations of WA (0.5 to 2.5 μM) and the culture supernatants were tested for Aβ 1-40 by ELISA."}, "[9]": {"tested_on": "SH-APP cells", "assay": "MTT cytotoxicity assay in SH-APP cells", "type": "cell-based, human", "settings": "WA 0.5 to 2.5 μM, 48 hours"}, "[10]": {"assay": "Binding of miR-107 to MENPs", "type": "physicochemical", "settings": "100 nM miR-107, 100 μg MENPs, PBS pH 7.4, 30 minutes", "description": "(§5) FIGS. 2A-2B provide miR-107 binding and release. A) % binding of miR-107 with MENP with respect to different concentrations; B) Release kinetics of miR-107 from MENP surface as a function of externally applied alternating current magnetic field strength (60 and 80 Oe) at different time points (10, 20 and 30 min).\n(§6) Binding kinetics with respect to different concentrations of miR-107 was performed using 100 μg of MENPs (FIG. 2A). Sample were incubated in phosphate buffered saline (PBS) (pH-7.4) and kept on vertical rotator under constant rotation (200 rpm) for 30 minutes. […] Release kinetics of miR-107 from MENPs was studied using UV spectroscopy at 260 nm. 100 nM of miR-107 was incubated with 100 μg of MENPs in 1 mL PBS (pH 7.4) for 30 mins and its release kinetics performed using alternating current magnetic field via electromagnetic coil at various time points (i.e., 10, 20, and 30 minutes)."}, "[11]": {"assay": "Release of miR-107 from MENPs under alternating current magnetic field (UV spectroscopy at 260 nm)", "type": "physicochemical", "settings": "30 mins", "description": "as §5, §6"}}, "note": "“Also recorded” adds a separate entry of the source."}
{"compound": "CN1CCN(CCc2ccc(Cl)c(Cl)c2)CC1.Cl.Cl", "note": "[BD1063, 1-[2-(3,4-Dichlorophenyl)ethyl]-4-methylpiperazine dihydrochloride]", "values": [{"measurement": "cocaine-induced convulsions", "setting": "[1]", "value": "significantly attenuated"}, {"measurement": "cocaine-induced locomotor stimulatory effects", "setting": "[1]", "value": "significantly attenuated"}]}
{"compound": "CC1=C(CO)C(=O)O[C@@H]([C@@H](C)[C@H]2CC[C@H]3[C@@H]4C[C@H]5O[C@]56[C@@H](O)C=CC(=O)[C@]6(C)[C@H]4CC[C@]23C)C1", "note": "[WA, 5,6-Epoxy-4,27-dihydroxy-1-oxowitha-2,24-dienolide]", "values": [{"measurement": "TEER values (BBB integrity)", "setting": "[2]", "value": "no difference in TEER values"}, {"measurement": "Aβ-secretion in SH-APP cells in basal chamber vs untreated control", "setting": "[3]; WA 2 μM without MENP in the apical chamber", "value": "no changes in the Aβ-secretion"}, {"measurement": "crossing of the BBB", "setting": "[3]; free WA 2 μM, not bound to MENP, apical chamber", "value": "could not cross the BBB"}, {"measurement": "HIV-1 replication, LTR levels", "setting": "[4]; cell pellet", "value": "significant suppression"}, {"measurement": "HIV-1 replication, p24 levels", "setting": "[4]; culture supernatant", "value": "significant suppression"}, {"measurement": "cell viability", "setting": "[5]", "value": "> 80", "unit": "%"}, {"measurement": "HIV-induced Aβ levels", "setting": "[6]", "value": "significantly decreased"}, {"measurement": "HIV induced LTR copies", "setting": "[7]", "value": 400, "unit": "copies"}, {"measurement": "β-Amyloid production (Aβ1-40 ELISA)", "setting": "[8]; 2 µM WA", "value": "significantly attenuates"}, {"measurement": "Aβ secretion (Aβ 1-40)", "setting": "[8]; WA 0.5 to 2.5 μM", "value": "dose dependent decrease"}, {"measurement": "cytotoxicity", "setting": "[9]", "value": "do not show any cytotoxic effects; also recorded: no significant cytotoxicity"}]}
{"compound": "miR-107: microRNA 107, inhibitor of BACE-1 expression; SEQ ID NO: 1 (pre-miRNA), SEQ ID NO: 2 (mature) (AGCAGCAUUGUACAGGGCUAUCA; listed as RNA, chemistry not given here; listed as Homo sapiens)", "values": [{"measurement": "maximum miR-107 binding to MENPs", "setting": "[10]", "value": 70, "unit": "%"}, {"measurement": "release of miR-107 from MENPs", "setting": "[11]; 60 Oe alternating current magnetic field", "value": 75, "unit": "%"}, {"measurement": "release of miR-107 from MENPs", "setting": "[11]; 100 Hz, 80 Oe alternating current magnetic field", "value": "~100", "unit": "%"}]}
